Experimental data taken from the NIST ThermoML archive (doi:10.1016/j.fluid.2005.03.027).
± gives the expanded uncertainty stated by the source.

Conditions: Crystal; visual observation

**Q.** With `Cc1cc(C)cc(O)c1` [3,5-dimethylphenol] as the compound, how does the Normal melting temperature read?
**A.** The Normal melting temperature was 63.77 ± 0.39 °C.

**Q.** With `CN1CCCC1=O` [N-methylpyrrolidone] as the compound, how does the Normal melting temperature read?
**A.** Its Normal melting temperature is -23.47 ± 0.39 °C.

**Q.** For `Oc1ccccc1` [phenol], which Normal melting temperature is on record?
**A.** Its Normal melting temperature is 41.70 ± 0.39 °C.
